Assay results taken from PMC11672294, “The Antipsychotic Drug Aripiprazole Suppresses Colorectal Cancer by Targeting LAMP2a to Induce RNH1/miR‐99a/mTOR‐Mediated Autophagy and Apoptosis” (Advanced Science, 2024).
Where a name gives a salt, the structure may show the parent alone.

These molecules were tested on HT29. Settings: 72 h, relative to DMSO, 10 µM, Relative cell viability (%).
Procedure, shortened: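 HT29 viability used WST-1 reduction (2 h, 37 °C, A450) after 72 h of treatment; screening compounds were tested singly at 10 µM, with dimethyl sulfoxide as the comparison.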

Row | Structure (SMILES) | Relative cell viability (%)
1 | O=C(O)Cc1ccccc1Nc1c(Cl)cccc1Cl [Diclofenac Potassium] | 69.42%
2 | C[C@@H]1CCN(C(=O)CC#N)C[C@@H]1N(C)c1ncnc2[nH]ccc12 [Tofacitinib (CP-690550) Citrate] | 115%

Same assay, conditions: 72 h, relative to DMSO; 10 µM

Row | Structure (SMILES) | Relative cell viability (%)
3 | C=CC(=O)Nc1cc(Nc2nccc(-c3cn(C)c4ccccc34)n2)c(OC)cc1N(C)CCN(C)C [AZD9291] | 0.8547%
4 | Nc1nc(N)nc(-c2cc(Cl)ccc2Cl)n1 [Irsogladine] | 176.5%
5 | COCCc1ccc(OCC(O)CNC(C)C)cc1 (stereo not drawn) [Metoprolol Tartrate] | 94.49%
6 | Cn1c(=O)cc(N2CCC[C@@H](N)C2)n(Cc2cc(F)ccc2C#N)c1=O [Trelagliptin] | 63.68%
7 | c1ccc2[nH]c(-c3cscn3)nc2c1 [Thiabendazole] | 70.34%
8 | COC(c1ccccc1)(c1ccccc1)[C@H](Oc1nc(C)cc(C)n1)C(=O)O [Ambrisentan] | 132.6%
9 | CCc1cccc2c3c([nH]c12)C(CC)(CC(=O)O)OCC3 (stereo not drawn) [Etodolac] | 86.76%
10 | Cc1cccc(-c2nn3c(c2-c2ccnc4ccc(C(N)=O)cc24)CCC3)n1 [LY2157299] | 106.7%
11 | C=CCc1cc(OC)c(O)c(C(=O)NCCO)c1 [Alibendol] | 149.2%
12 | C[C@@H](O)[C@H]1C(=O)N2C(C(=O)O)=C(S[C@@H]3CN[C@H](CNS(N)(=O)=O)C3)[C@H](C)[C@H]12 [Doripenem Hydrate] | 88.32%
13 | Cc1ccc(Nc2nccc(N(C)c3ccc4c(C)n(C)nc4c3)n2)cc1S(N)(=O)=O [Pazopanib] | 46.12%
14 | Cc1nc2c([nH]1)-c1ccccc1N(C(=O)c1ccc(NC(=O)c3ccccc3-c3ccccc3)cc1)CC2 [Conivaptan HCl] | 109%
15 | C[C@@H]1CCO[C@H]2Cn3cc(C(=O)NCc4ccc(F)cc4F)c(=O)c(O)c3C(=O)N12 [Dolutegravir (GSK1349572)] | 70.87%
16 | CN1CCC[C@@H]1CCO[C@](C)(c1ccccc1)c1ccc(Cl)cc1 [Clemastine Fumarate] | 16.95%
17 | COc1ncc(-c2ccc3nccc(-c4ccnnc4)c3c2)cc1NS(=O)(=O)c1ccc(F)cc1F [GSK2126458 (GSK458)] | 12.62%
18 | CC(=O)Oc1cc2c(s1)CCN(C(C(=O)C1CC1)c1ccccc1F)C2 (stereo not drawn) [Prasugrel] | 68.07%
19 | CC[C@H]1OC(=O)[C@H](C)[C@@H](O[C@H]2C[C@@](C)(OC)[C@@H](O)[C@H](C)O2)[C@H](C)[C@@H](O[C@@H]2O[C@H](C)C[C@H](N(C)C)[C@H]2O)[C@](C)(O)C[C@@H](C)CN(C)[C@H](C)[C@@H](O)[C@]1(C)O [Azithromycin] | 33.47%
20 | COC(=O)N[C@H](C(=O)N1CC2(CC2)C[C@H]1c1ncc(-c2ccc3c(c2)C(F)(F)c2cc(-c4ccc5nc([C@@H]6[C@H]7CC[C@H](C7)N6C(=O)[C@@H](NC(=O)OC)C(C)C)[nH]c5c4)ccc2-3)[nH]1)C(C)C [Ledipasvir (GS5885)] | 80.34%
21 | COc1ccc(C(=O)N2CCCC2=O)cc1 [Aniracetam] | 91.43%
22 | O=C(N/N=C/c1ccc([N+](=O)[O-])o1)c1ccc(O)cc1 [Nifuroxazide] | 43.03%
23 | O=C(O)c1ccc2c(c1)nc(Nc1cccc(Cl)c1)c1ccncc12 [CX-4945 (Silmitasertib)] | 120.8%
24 | N[C@@H](Cc1cc(I)c(Oc2ccc(O)c(I)c2)c(I)c1)C(=O)O [Liothyronine Sodium] | 85.76%

Row | Structure (SMILES) | Relative cell viability (%)
25 | CCN(CC)CCOC(=O)C(c1ccccc1)c1ccccc1 [Adiphenine HCl] | 119.6%
26 | C[C@H]1O[C@@H](O[C@H]2[C@@H](O)C[C@H](O[C@H]3[C@@H](O)C[C@H](O[C@H]4CC[C@@]5(C)[C@H](CC[C@@H]6[C@@H]5C[C@@H](O)[C@]5(C)[C@@H](C7=CC(=O)OC7)CC[C@]65O)C4)O[C@@H]3C)O[C@@H]2C)C[C@H](O)[C@@H]1O [Digoxin] | 5.758%
27 | CN(C)CCOC(C)(c1ccccc1)c1ccccn1 (stereo not drawn) [Doxylamine Succinate] | 83.94%
28 | C[C@@H](NCCCc1cccc(C(F)(F)F)c1)c1cccc2ccccc12 [Cinacalcet HCl] | 2.648%
29 | CCOC(=O)C1=C(C)NC(C)=C(C(=O)OCC)C1c1ccccc1/C=C/C(=O)OC(C)(C)C [Lacidipine] | 79.32%
30 | O=c1ccc2ccccc2o1 [Coumarin] | 71.21%
31 | COc1ccccc1OCCNCC(O)COc1cccc2[nH]c3ccccc3c12 (stereo not drawn) [Carvedilol] | 24.58%
32 | O=C(NC[C@H]1CN(c2ccc(N3CCOCC3=O)cc2)C(=O)O1)c1ccc(Cl)s1 [Rivaroxaban] | 107.3%
33 | Cc1nnc(NS(=O)(=O)c2ccc(N)cc2)s1 [Sulfamethizole] | 202.3%
34 | COc1cc(OC)c(/C=C/S(=O)(=O)Cc2ccc(OC)c(NCC(=O)O)c2)c(OC)c1 [Rigosertib (ON-01910)] | 4.206%
35 | CC(=O)OCC[N+](C)(C)C [Acetylcholine Chloride] | 93.22%
36 | N#Cc1ccccc1-c1cc(-c2ccccn2)cn(-c2ccccc2)c1=O [Perampanel] | 104.7%
37 | CC[C@]1(O)C[C@H]2CN(CCc3c([nH]c4ccccc34)[C@@](C(=O)OC)(c3cc4c(cc3OC)N(C=O)[C@H]3[C@@](O)(C(=O)OC)[C@H](OC(C)=O)[C@]5(CC)C=CCN6CC[C@]43[C@@H]65)C2)C1 [Vincristine] | 22.9%
38 | CN(C)CCCN1c2ccccc2Sc2ccc(Cl)cc21 [Chlorpromazine HCl] | 93.71%
39 | Nc1ncn([C@@H]2O[C@H](CO)[C@@H](O)[C@H]2O)c(=O)n1 [Azacitidine] | 56.36%
40 | C/C(O)=C(\C#N)C(=O)Nc1ccc(C(F)(F)F)cc1 [Teriflunomide] | 75.76%
41 | C=CCN1CC[C@]23c4c5ccc(O)c4O[C@H]2C(=O)CC[C@@]3(O)[C@H]1C5 [Naloxone HCl] | 95.63%
42 | Cc1c(-c2ccnn2C)cc(C(=O)NCc2ccc(S(C)(=O)=O)cn2)c(=O)n1-c1cccc(C(F)(F)F)c1 [Alvelestat (AZD9668)] | 116.2%
43 | O=C1CCc2ccc(OCCCCN3CCN(c4cccc(Cl)c4Cl)CC3)cc2N1 [aripiprazole] | 49.03%
44 | CN(Cc1cc(Br)cc(Br)c1N)C1CCCCC1 [Bromhexine HCl] | 122.9%
45 | COc1cc2c(cc1OC)CC(=O)N(CCCN(C)C[C@H]1Cc3cc(OC)c(OC)cc31)CC2 [Ivabradine HCl] | 110.8%
46 | OC[C@@H](O)[C@@H](O)[C@H](O)[C@H](O)CO [D-Mannitol] | 114.9%

Row | Structure (SMILES) | Relative cell viability (%)
47 | O=C(O)c1cccnc1 [Nicotinic Acid] | 70.34%
48 | CCN1CCN(Cc2ccc(Nc3ncc(F)c(-c4cc(F)c5nc(C)n(C(C)C)c5c4)n3)nc2)CC1 [LY2835219] | 5.983%
49 | Cc1cccc(C)c1OCC(C)N (stereo not drawn) [Mexiletine HCl] | 84.85%
50 | C/C(=C\C(=O)OCCCCCCCCC(=O)O)C[C@@H]1OC[C@H](C[C@@H]2O[C@H]2[C@@H](C)[C@H](C)O)[C@@H](O)[C@H]1O [Mupirocin] | 92.12%
51 | CNC(=O)c1ccc(N2C(=S)N(c3ccc(C#N)c(C(F)(F)F)c3)C(=O)C2(C)C)cc1F [Enzalutamide (MDV3100)] | 86.76%
52 | Cc1ccc2c(Cl)cc(Cl)c(O)c2n1 [Chlorquinaldol] | 41.21%
53 | C[N+](C)(C)C[C@H](O)CC(=O)[O-] [L-carnitine] | 116.1%
54 | CNC[C@H](O)[C@@H](O)[C@H](O)[C@H](O)CO [Meglumine] | 172.9%
55 | CC#CCn1c(N2CCC[C@@H](N)C2)nc2c1c(=O)n(Cc1nc(C)c3ccccc3n1)c(=O)n2C [Linagliptin] | 66.5%
56 | CN1CCN(c2ccc(C(=O)Nc3n[nH]c4ccc(Cc5cc(F)cc(F)c5)cc34)c(NC3CCOCC3)c2)CC1 [Entrectinib (RXDX-101)] | 2.137%
57 | CN1CCN(c2nc(C3=C(c4c[nH]c5ccccc45)C(=O)NC3=O)c3ccccc3n2)CC1 [Sotrastaurin] | 49.03%
58 | CN(C)C(=O)c1cc2cnc(Nc3ccc(N4CCNCC4)cn3)nc2n1C1CCCC1 [LEE011] | 66.24%
59 | COc1ccc(C(=O)c2ccccc2)c(O)c1 [Oxybenzone] | 118.8%
60 | CCC1(C)CC(=O)NC(=O)C1 [Bemegride] | 88.48%
61 | C[C@@H]1CC[C@H]2[C@@H](C)C(=O)O[C@@H]3O[C@@]4(C)CC[C@@H]1[C@]32OO4 [Artemisinin] | 110.1%
62 | Oc1c(Br)cc(Br)c2cccnc12 [Broxyquinoline] | 83.94%
63 | Cc1c(C(=O)Nc2ccc(N3C[C@@H](C)O[C@@H](C)C3)nc2)cccc1-c1ccc(OC(F)(F)F)cc1 [LDE225 (NVP-LDE225,Erismodegib)] | 111.4%
64 | C[C@H](CCC(=O)O)[C@H]1CC[C@H]2[C@@H]3[C@H](O)C[C@@H]4C[C@H](O)CC[C@]4(C)[C@H]3CC[C@]12C [Chenodeoxycholic Acid] | 60.17%
65 | CCc1cc(/C(C)=N/OCc2ccc(C3CCCCC3)c(C(F)(F)F)c2)ccc1CN1CC(C(=O)O)C1 [BAF312 (Siponimod)] | 107.265%
66 | CCC(COC(=O)c1cc(OC)c(OC)c(OC)c1)(c1ccccc1)N(C)C (stereo not drawn) [Trimebutine] | 107.3%
67 | O=S(=O)(O)CCS [Mesna] | 56.36%
68 | N#C[C@@H]1CCCN1C(=O)CNC12CC3CC(CC(O)(C3)C1)C2 [Vildagliptin (LAF-237)] | 108.7%

Same assay, conditions: ht29 cells, 72 h, 10 µM

Row | Structure (SMILES) | Relative cell viability (%)
69 | O=C(Nc1nc2cccc(-c3ccc(CN4CCS(=O)(=O)CC4)cc3)n2n1)C1CC1 [Filgotinib (GLPG0634)] | 50.85%
